Source: patent publication US10519134B2, “Pyrazole compounds and methods of making and using same” (Lundbeck La Jolla Research Center, Inc., priority 2015, dated 2019)

Key:
FAAH = molecular target: T1, FAAH (Mus musculus, UniProt O08914); assay: In vitro competitive activity-based protein profiling (mouse), FAAH gel band; type: biochemical; settings: for inhibition at 1 µM: read-out: FAAH % inh. 1 μM; for IC50: mouse
T1 construct: Proteomes (mouse brain membrane fraction or cell lysates); from tissue; host or cells: mouse brain membrane fraction (or cell lysates)
T1 sequence (O08914 1-579): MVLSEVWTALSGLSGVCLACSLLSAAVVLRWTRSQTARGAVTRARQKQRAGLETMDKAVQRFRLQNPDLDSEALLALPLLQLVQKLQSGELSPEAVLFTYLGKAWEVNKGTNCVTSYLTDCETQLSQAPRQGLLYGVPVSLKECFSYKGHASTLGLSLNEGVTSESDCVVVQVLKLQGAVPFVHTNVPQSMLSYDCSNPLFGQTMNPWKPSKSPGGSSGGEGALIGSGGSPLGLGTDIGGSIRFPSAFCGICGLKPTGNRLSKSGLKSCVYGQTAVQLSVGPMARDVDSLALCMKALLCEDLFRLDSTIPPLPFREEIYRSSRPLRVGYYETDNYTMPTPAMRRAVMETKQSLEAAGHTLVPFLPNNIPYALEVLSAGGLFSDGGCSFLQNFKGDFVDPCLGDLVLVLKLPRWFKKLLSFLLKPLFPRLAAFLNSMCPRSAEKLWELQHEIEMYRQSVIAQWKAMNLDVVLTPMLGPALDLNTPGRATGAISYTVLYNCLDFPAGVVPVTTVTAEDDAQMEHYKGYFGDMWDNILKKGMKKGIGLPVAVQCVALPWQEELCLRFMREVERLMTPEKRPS
Experimental: (§1) In Vitro Competitive Activity-Based Protein Profiling (Mouse).
(§2) Proteomes (mouse brain membrane fraction or cell lysates) (50 μL, 1.0 mg/mL total protein concentration) were preincubated with varying concentrations of inhibitors at 37° C. After 30 min, FP-Rh or HT-01 (1.0 μL, 50 μM in DMSO) was added and the mixture was incubated for another 30 min at 37° C. Reactions were quenched with SDS loading buffer (15 μL—4×) and run on SDS-PAGE. Following gel imaging, serine hydrolase activity was determined by measuring fluorescent intensity of gel bands corresponding to MAGL, ABHD6, and FAAH, using ImageJ 1.43u software.

MAGL = molecular target: T2, MAGL (Mus musculus, UniProt O35678); assay: In vitro competitive activity-based protein profiling (mouse), MAGL gel band; type: biochemical; settings: for inhibition at 1 µM: read-out: MAGL % inh. 1 μM; for IC50: mouse
T2 construct: Proteomes (mouse brain membrane fraction or cell lysates); from tissue; host or cells: mouse brain membrane fraction (or cell lysates)
T2 sequence (O35678 1-303): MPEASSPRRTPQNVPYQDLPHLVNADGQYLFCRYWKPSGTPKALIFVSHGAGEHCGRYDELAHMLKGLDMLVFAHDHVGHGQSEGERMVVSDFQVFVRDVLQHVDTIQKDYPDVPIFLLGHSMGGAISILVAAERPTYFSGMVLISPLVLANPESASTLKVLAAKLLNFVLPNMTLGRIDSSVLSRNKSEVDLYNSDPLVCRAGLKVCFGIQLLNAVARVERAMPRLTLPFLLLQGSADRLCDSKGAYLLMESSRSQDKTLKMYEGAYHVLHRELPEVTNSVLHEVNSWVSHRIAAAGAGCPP
Experimental: as §1, §2

CS(=O)(=O)Nc1ccn(C(=O)N2CCC3(CCCN3Cc3ccc(C(F)(F)F)cc3N3CCC(C(=O)O)CC3)CC2)n1 [Example 243, 1-(2-((8-(3-(methylsulfonamido)-1H-pyrazole-1-carbonyl)-1,8-diazaspiro[4.5]decan-1-yl)methyl)-5-(trifluoromethyl)phenyl)piperidine-4-carboxylic acid]
inhibition at 1 µM (FAAH): 0 to 25% | inhibition at 1 µM (MAGL): 0 to 25%

CS(=O)(=O)Nc1ccn(C(=O)N2CCN(Cc3cc(N4CCOCC4)ccc3C(F)(F)F)CC2)n1 [Example 181, N-(1-(4-(5-morpholino-2-(trifluoromethyl)benzyl)piperazine-1-carbonyl)-1H-pyrazol-3-yl) methanesulfonamide]
inhibition at 1 µM (FAAH): 0 to 25% | inhibition at 1 µM (MAGL): 50 to 75%

CS(=O)(=O)Nc1ccn(C(=O)N2CCN(Cc3ccc(Cl)c(-c4ncon4)c3)CC2)n1 [Example 261, N-(1-(4-(4-chloro-3-(1,2,4-oxadiazol-3-yl)benzyl)piperazine-1-carbonyl)-1H-pyrazol-3-yl) methanesulfonamide]
inhibition at 1 µM (FAAH): 0 to 25% | inhibition at 1 µM (MAGL): ≥ 75%

CCN1CCN(c2cc(C(F)(F)F)ccc2CN2CCCC23CCN(C(=O)n2ccc(NS(C)(=O)=O)n2)CC3)CC1 [Example 238, N-(1-(1-(2-(4-ethylpiperazin-1-yl)-4-(trifluoromethyl)benzyl)-1,8-diazaspiro[4.5]decane-8-carbonyl)-1H-pyrazol-3-yl) methanesulfonamide]
inhibition at 1 µM (FAAH): 0 to 25% | inhibition at 1 µM (MAGL): 0 to 25%

CS(=O)(=O)Nc1ccn(C(=O)N2CCN(Cc3ccc(C(F)(F)F)cc3-c3nnn[nH]3)CC2)n1 [Example 259, N-(1-(4-(2-(1H-tetrazol-5-yl)-4-(trifluoromethyl)benzyl)piperazine-1-carbonyl)-1H-pyrazol-3-yl) methanesulfonamide]
inhibition at 1 µM (FAAH): 0 to 25% | inhibition at 1 µM (MAGL): 50 to 75%

CC(=O)Nc1ccn(C(=O)N2CCC3(CCCN3Cc3ccc4c(c3)OCCO4)CC2)n1 [Example 98, N-(1-(1-((2,3-dihydrobenzo[b][1,4]dioxin-6-yl)methyl)-1,8-diazaspiro[4.5]decane-8-carbonyl)-1H-pyrazol-3-yl)acetamide]
IC50 (FAAH): 1000 to 10000 nM | inhibition at 1 µM (FAAH): 0 to 25% | IC50 (MAGL): 100 to 1000 nM | inhibition at 1 µM (MAGL): ≥ 75%

CS(=O)(=O)Nc1ccn(C(=O)N2CCN(C(c3ccc(Cl)cc3)c3ccc(Cl)cc3)CC2)n1 [Example 182, N-(1-(4-(bis(4-chlorophenyl)methyl)piperazine-1-carbonyl)-1H-pyrazol-3-yl) methanesulfonamide]
inhibition at 1 µM (FAAH): 0 to 25% | inhibition at 1 µM (MAGL): 0 to 25%

CC(=O)Nc1ccn(C(=O)N2CCC3(CCCN3Cc3ccc(Cl)cc3N3CCN(C(C)=O)CC3)CC2)n1 [Example 36, N-(1-(1-(2-(4-acetylpiperazin-1-yl)-4-chlorobenzyl)-1,8-diazaspiro[4.5]decane-8-carbonyl)-1H-pyrazol-3-yl)acetamide]
IC50 (FAAH): 1000 to 10000 nM | inhibition at 1 µM (FAAH): 0 to 25% | IC50 (MAGL): 100 to 1000 nM | inhibition at 1 µM (MAGL): ≥ 75%

CC(=O)Nc1ccn(C(=O)N2CCC3(CCCN3Cc3ccc(N4CCCC4)c(Cl)c3)CC2)n1 [Example 100, N-(1-(1-(3-chloro-4-(pyrrolidin-1-yl)benzyl)-1,8-diazaspiro[4.5]decane-8-carbonyl)-1H-pyrazol-3-yl)acetamide]
IC50 (FAAH): 1000 to 10000 nM | inhibition at 1 µM (FAAH): 0 to 25% | IC50 (MAGL): ≤ 100 nM | inhibition at 1 µM (MAGL): ≥ 75%

CS(=O)(=O)Nc1ccn(C(=O)N2CCN(Cc3ccc(Cl)cc3N3CCOCC3)CC2)n1 [Example 135, N-(1-(4-(4-chloro-2-morpholinobenzyl)piperazine-1-carbonyl)-1H-pyrazol-3-yl) methanesulfonamide]
IC50 (FAAH): 1000 to 10000 nM | inhibition at 1 µM (FAAH): 0 to 25% | IC50 (MAGL): 100 to 1000 nM | inhibition at 1 µM (MAGL): ≥ 75%

CC(=O)Nc1ccn(C(=O)N2CCN(Cc3ccc(Cl)cc3N3CCC(F)(F)CC3)CC2)n1 [Example 57, N-(1-(4-(4-chloro-2-(4,4-difluoropiperidin-1-yl)benzyl)piperazine-1-carbonyl)-1H-pyrazol-3-yl)acetamide]
IC50 (FAAH): 1000 to 10000 nM | inhibition at 1 µM (FAAH): 0 to 25% | IC50 (MAGL): ≤ 100 nM | inhibition at 1 µM (MAGL): ≥ 75%

CCN1CCN(c2cc(Cl)ccc2CN2CCN(C(=O)n3ccc(NC(C)=O)n3)CC2)CC1 [Example 59, N-(1-(4-(4-chloro-2-(4-ethylpiperazin-1-yl)benzyl)piperazine-1-carbonyl)-1H-pyrazol-3-yl)acetamide]
IC50 (FAAH): 1000 to 10000 nM | inhibition at 1 µM (FAAH): 0 to 25% | IC50 (MAGL): 100 to 1000 nM | inhibition at 1 µM (MAGL): ≥ 75%

CS(=O)(=O)Nc1ccn(C(=O)N2CCC3(CCCN3Cc3ccc(C(F)(F)F)c(N4CCCC4)c3)CC2)n1 [Example 160, N-(1-(1-(3-(pyrrolidin-1-yl)-4-(trifluoromethyl)benzyl)-1,8-diazaspiro[4.5]decane-8-carbonyl)-1H-pyrazol-3-yl) methanesulfonamide]
inhibition at 1 µM (FAAH): 0 to 25% | inhibition at 1 µM (MAGL): ≥ 75%

CC(=O)Nc1ccn(C(=O)N2CCN(Cc3ccc(C(F)(F)F)cc3N3CCC(C(N)=O)CC3)CC2)n1 [Example 274, 1-(2-((4-(3-acetamido-1H-pyrazole-1-carbonyl)piperazin-1-yl)methyl)-5-(trifluoromethyl)phenyl)piperidine-4-carboxamide]
inhibition at 1 µM (FAAH): 0 to 25% | inhibition at 1 µM (MAGL): ≥ 75%

COc1cc(-c2ccccc2)ccc1CN1CCN(C(=O)n2ccc(NS(C)(=O)=O)n2)CC1 [Example 151, N-(1-(4-((3-methoxy-[1,1′-biphenyl]-4-yl)methyl)piperazine-1-carbonyl)-1H-pyrazol-3-yl) methanesulfonamide]
inhibition at 1 µM (FAAH): 25 to 50% | inhibition at 1 µM (MAGL): ≥ 75%

CS(=O)(=O)Nc1ccn(C(=O)N2CCC3(CCCN3Cc3ccc(C(F)(F)F)cc3N3CCN(S(C)(=O)=O)CC3)CC2)n1 [Example 255, N-(1-(1-(2-(4-(methylsulfonyl)piperazin-1-yl)-4-(trifluoromethyl)benzyl)-1,8-diazaspiro[4.5]decane-8-carbonyl)-1H-pyrazol-3-yl) methanesulfonamide]
inhibition at 1 µM (FAAH): 0 to 25% | inhibition at 1 µM (MAGL): 0 to 25%

CN1CCN(c2c(Cl)cccc2CN2CCN(C(=O)n3ccc(NS(C)(=O)=O)n3)CC2)CC1 [Example 225, N-(1-(4-(3-chloro-2-(4-methylpiperazin-1-yl)benzyl)piperazine-1-carbonyl)-1H-pyrazol-3-yl) methanesulfonamide]
inhibition at 1 µM (FAAH): 0 to 25% | inhibition at 1 µM (MAGL): 0 to 25%

CC(=O)Nc1ccn(C(=O)N2CCC3(CCCN3Cc3ccc(C(F)(F)F)cc3N3CCN(S(C)(=O)=O)CC3)CC2)n1 [Example 21, N-(1-(1-(2-(4-(methylsulfonyl)piperazin-1-yl)-4-(trifluoromethyl)benzyl)-1,8-diazaspiro[4.5]decane-8-carbonyl)-1H-pyrazol-3-yl)acetamide]
IC50 (FAAH): 1000 to 10000 nM | inhibition at 1 µM (FAAH): 0 to 25% | IC50 (MAGL): 100 to 1000 nM | inhibition at 1 µM (MAGL): ≥ 75%

CC(=O)N(C)c1ccn(C(=O)N2CCC3(CCCN3Cc3cc(N4CCCC4)cc(C(F)(F)F)c3)CC2)n1 [Example 66, N-methyl-N-(1-(1-(3-(pyrrolidin-1-yl)-5-(trifluoromethyl)benzyl)-1,8-diazaspiro[4.5]decane-8-carbonyl)-1H-pyrazol-3-yl)acetamide]
inhibition at 1 µM (FAAH): 0 to 25% | inhibition at 1 µM (MAGL): 50 to 75%

CS(=O)(=O)Nc1ccn(C(=O)N2CCN(Cc3cc(N4CCC(C(=O)O)CC4)cc(C(F)(F)F)c3)CC2)n1 [Example 242, 1-(3-((4-(3-(methylsulfonamido)-1H-pyrazole-1-carbonyl)piperazin-1-yl)methyl)-5-(trifluoromethyl)phenyl)piperidine-4-carboxylic acid]
inhibition at 1 µM (FAAH): 0 to 25% | inhibition at 1 µM (MAGL): 0 to 25%

CS(=O)(=O)Nc1ccn(C(=O)N2CCN(Cc3ccc(C(F)(F)F)c(N4CCN5CCC[C@@H]5C4)c3)CC2)n1 [Example 278, (R)-N-(1-(4-(3-(hexahydropyrrolo[1,2-a]pyrazin-2(1H)-yl)-4-(trifluoromethyl)benzyl)piperazine-1-carbonyl)-1H-pyrazol-3-yl) methanesulfonamide]
inhibition at 1 µM (FAAH): 0 to 25% | inhibition at 1 µM (MAGL): ≥ 75%

CS(=O)(=O)Nc1ccn(C(=O)N2CCN(Cc3ccc(C(F)(F)F)c(C4CCN(CC(=O)O)CC4)c3)CC2)n1 [Example 119, 2-(4-(5-((4-(3-(methylsulfonamido)-1H-pyrazole-1-carbonyl)piperazin-1-yl)methyl)-2-(trifluoromethyl)phenyl)piperidin-1-yl)acetic Acid]
IC50 (MAGL): ≤ 100 nM
